{"source": "patent US20220226508A1", "about": "“METHODS AND COMPOSITIONS FOR TREATING EPILEPSY” (THE REGENTS OF THE UNIVERSITY OF CALIFORNIA, priority 2019, published 2022)", "key": {"scn1lab mutant zebrafish": {"tested_on": "scn1lab mutant zebrafish", "assay": "Locomotion assay of high-velocity seizure-like swim behavior", "assay_type": "in vivo, zebrafish (Danio rerio)", "conditions": "for effect on seizure-like swim behavior (change in mean velocity): commercial 5-HT2BR/dopamine agonists, three concentrations; for effect on seizure-like swim behavior (change in mean velocity) / suppression of seizure-like swim behavior (change in mean velocity): 30 and 90 min exposure, threshold ≥40%; for suppression of seizure-like swim behavior (change in mean velocity): independently resynthesized compounds retested at 10, 50, 100 and 250 μM; for suppression of seizure-like swim behavior (change in mean swim velocity): initial library screen at 100 μM and 250 μM, 5 dpf larvae, threshold reduction ≥40%", "text": "Zebrafish maintenance. Zebrafish were raised under standard laboratory conditions in accordance with requirements outlined in the Guide for the Care and Use of Animals (ebrary Inc., 2011) and experiments were approved by the Institutional Animal Care and Use Committee (protocol #AN108659-03). Embryos were obtained by natural spawning of scn1lab (didy^s552) heterozygous animals that had been outcrossed to TL strain. Homozygous scn1lab mutants (n=2500) have dispersed melanosomes and appear visibly darker by 3 dpf compared to WT larvae.\nSeizure monitoring. At 5 dpf individual zebrafish larvae were placed into a single well of a clear flat-bottomed 96-well microplate containing embryo media. Larvae were selected randomly as sex determination is not possible at this stage of development. All drug screening experiments were conducted in an unbiased manner by investigators blinded to the test compounds and all files coded for post hoc analysis. Microplates were placed inside the DanioVision and acclimated for 20 min at room temperature. Locomotion plots were obtained for each well at a recording epoch of 10 min using EthoVision XT software (DanioVision, Noldus Information Technology). Seizure scoring was performed using the following three-stage scale established for pentylenetetrazole-induced seizures: Stage 0, no or very little swim activity; Stage I, increased, brief bouts of swim activity; Stage II, rapid “whirlpool-like” circling swim behavior; and Stage III, paroxysmal whole-body clonus-like convulsions, and a brief loss of posture. WT fish are typically scored at Stage 0 or I. Plots were analyzed for distance travelled (in millimeters) and mean velocity (in millimeters per second). After 90 mins of drug exposure larvae were examined for toxic side-effects. Compounds that decreased or stopped the larva heartbeat, or reduced or eliminated the escape response when touched, were considered toxic.\nStatistics. Data are presented as the mean±standard error of the mean (SEM), unless otherwise stated. For behavior analysis, the threshold for a change in mean swim velocity ≥40% (>1.5×SD of 250 control treated scn1lab) is considered significant. For comparison between more than two groups one-way ANOVA analysis was used. […] Differences considered statistically significant are indicated with asterisks (*P<0.05; **P<0.01)."}, "human 5-HT2AR [1]": {"target": "T1, human 5-HT2AR (Homo sapiens, UniProt P28223)", "T1 construct": "expressed in transfected cells", "T1 sequence (P28223 whole entry)": "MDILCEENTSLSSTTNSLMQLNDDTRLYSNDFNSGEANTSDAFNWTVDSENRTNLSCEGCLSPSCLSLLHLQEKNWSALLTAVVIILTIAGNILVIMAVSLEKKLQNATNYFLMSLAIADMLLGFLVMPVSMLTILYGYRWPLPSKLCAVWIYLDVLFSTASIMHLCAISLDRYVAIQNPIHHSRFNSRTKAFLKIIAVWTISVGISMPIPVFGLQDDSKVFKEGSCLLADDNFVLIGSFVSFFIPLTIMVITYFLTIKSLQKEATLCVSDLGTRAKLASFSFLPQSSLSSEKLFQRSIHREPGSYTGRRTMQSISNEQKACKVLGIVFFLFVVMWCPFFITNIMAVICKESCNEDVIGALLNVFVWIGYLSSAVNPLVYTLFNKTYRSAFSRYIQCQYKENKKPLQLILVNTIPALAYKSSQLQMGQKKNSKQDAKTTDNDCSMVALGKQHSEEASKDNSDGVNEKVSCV", "assay": "biochemical", "assay_type": "binding", "conditions": "read-out: binding affinity (Ki) 5-HT2AR", "procedure": "(§1) Receptor Binding Assays. In vitro binding assay and Ki data were performed by the US National Institute of Mental Health Psychoactive Drug Screening Program (NIMH PDSP). Drugs were screened against recombinant, stably expressed human 5-HT2AR, 5-HT2BR, 5-HT2CR and H1. For specific binding assays please refer to detailed procedures at https://pdspdb.unc.edu/pdspWeb/ (Besnard, J. et al., Nature, 492, 215-220, 2012)."}, "human 5-HT2BR [2]": {"target": "T2, human 5-HT2BR (Homo sapiens, UniProt P41595)", "T2 construct": "expressed in transfected cells", "T2 sequence (P41595 whole entry)": "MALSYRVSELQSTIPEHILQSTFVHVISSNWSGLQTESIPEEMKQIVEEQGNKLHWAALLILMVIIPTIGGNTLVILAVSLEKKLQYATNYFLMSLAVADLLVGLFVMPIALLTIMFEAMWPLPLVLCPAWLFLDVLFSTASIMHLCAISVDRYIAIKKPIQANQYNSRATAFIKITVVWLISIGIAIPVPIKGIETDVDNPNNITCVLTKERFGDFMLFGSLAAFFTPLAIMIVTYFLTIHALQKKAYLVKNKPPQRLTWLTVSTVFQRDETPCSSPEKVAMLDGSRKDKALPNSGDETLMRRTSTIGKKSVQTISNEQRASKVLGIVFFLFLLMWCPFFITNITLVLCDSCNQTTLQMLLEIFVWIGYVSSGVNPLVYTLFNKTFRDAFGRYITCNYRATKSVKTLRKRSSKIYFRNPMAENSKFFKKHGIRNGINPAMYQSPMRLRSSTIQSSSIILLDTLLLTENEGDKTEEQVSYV", "assay": "biochemical", "assay_type": "binding", "conditions": "for specificity / selectivity for 5-HT2BR over other 5-HT2R subtypes: radioligand binding; for Ki: read-out: binding affinity (Ki) 5-HT2BR", "procedure": "as §1"}, "human H1 receptor": {"target": "human H1 receptor (Homo sapiens, UniProt P35367)", "sequence (P35367 whole entry)": "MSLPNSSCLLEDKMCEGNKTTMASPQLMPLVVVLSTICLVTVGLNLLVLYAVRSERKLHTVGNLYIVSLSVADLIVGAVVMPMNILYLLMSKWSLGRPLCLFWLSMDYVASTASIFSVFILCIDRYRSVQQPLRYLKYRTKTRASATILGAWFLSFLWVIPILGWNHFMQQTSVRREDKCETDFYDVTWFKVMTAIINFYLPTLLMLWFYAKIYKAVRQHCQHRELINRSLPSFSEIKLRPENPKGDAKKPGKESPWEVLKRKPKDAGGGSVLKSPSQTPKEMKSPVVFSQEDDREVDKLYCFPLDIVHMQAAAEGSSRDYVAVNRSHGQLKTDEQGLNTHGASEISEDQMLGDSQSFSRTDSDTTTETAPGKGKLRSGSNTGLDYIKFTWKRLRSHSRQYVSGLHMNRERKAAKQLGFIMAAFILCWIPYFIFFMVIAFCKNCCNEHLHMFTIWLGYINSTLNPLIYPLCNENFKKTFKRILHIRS", "assay": "Radioligand binding assay (NIMH PDSP), H1", "set-up": "expressed in transfected cells", "conditions": "read-out: binding affinity (Ki) H1", "procedure": "as §1"}, "human 5-HT2CR [3]": {"target": "T3, human 5-HT2CR (Homo sapiens, UniProt P28335)", "T3 construct": "expressed in transfected cells", "T3 sequence (P28335 33-458)": "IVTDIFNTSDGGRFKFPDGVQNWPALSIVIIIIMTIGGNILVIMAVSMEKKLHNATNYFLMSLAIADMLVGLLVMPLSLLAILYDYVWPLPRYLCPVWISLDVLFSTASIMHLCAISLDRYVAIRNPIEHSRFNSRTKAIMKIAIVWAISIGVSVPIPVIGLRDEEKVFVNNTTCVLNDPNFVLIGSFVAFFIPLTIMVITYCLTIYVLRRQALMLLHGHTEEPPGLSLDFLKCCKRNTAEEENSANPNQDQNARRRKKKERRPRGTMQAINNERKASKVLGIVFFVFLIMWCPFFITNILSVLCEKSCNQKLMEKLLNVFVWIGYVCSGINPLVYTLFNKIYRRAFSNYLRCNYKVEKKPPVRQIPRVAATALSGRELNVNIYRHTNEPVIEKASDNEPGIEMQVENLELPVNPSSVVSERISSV", "assay": "Radioligand binding assay (NIMH PDSP), 5-HT2CR", "conditions": "read-out: binding affinity (Ki) 5-HT2CR", "procedure": "as §1"}, "human 5-HT2BR [4]": {"target": "T2, human 5-HT2BR", "conditions": "known drugs and commercial compounds; read-out: binding affinity (Ki) 5-HT2B / 5-HT2BR; cited from earlier work"}, "human 5-HT2AR [5]": {"target": "T1, human 5-HT2AR", "conditions": "read-out: binding affinity (Ki) 5-HT2A / 5-HT2AR; cited from earlier work"}, "human 5-HT2CR [6]": {"target": "T3, human 5-HT2CR", "conditions": "known drugs and commercial compounds; read-out: binding affinity (Ki) 5-HT2C / 5-HT2CR; cited from earlier work"}, "[7]": {"conditions": "clemizole analogs, recombinant human receptor"}}, "note": "“Also recorded” adds a separate entry of the source. Where two headings read alike, the source gives them in different places."}
{"compound": "CC(N)Cc1c[nH]c2ccc(OCc3cccs3)cc12", "note": "(stereo not shown) [BW-723C86, reference compound]", "values": [{"measurement": "effect on seizure-like swim behavior (change in mean velocity)", "setting": "scn1lab mutant zebrafish", "result": "showed a decrease in seizure-like swim behavior, but also failed to reach our significance threshold"}]}
{"compound": "CCCn1c(CN2CCCC2)nc2ccccc21", "note": "[Compound 5]", "values": [{"measurement": "Ki", "setting": "human 5-HT2AR [1]", "result": "> 10000", "unit": "nM"}, {"measurement": "specificity / selectivity for 5-HT2BR over other 5-HT2R subtypes", "setting": "human 5-HT2BR [2]", "result": "specific binding for 5HT2BR; also recorded: selectivity for 5-HT2BR"}, {"measurement": "Ki", "setting": "human 5-HT2BR [2]", "result": 219, "unit": "nM"}, {"measurement": "Ki", "setting": "human H1 receptor", "result": 362, "unit": "nM"}, {"measurement": "Ki", "setting": "human 5-HT2CR [3]", "result": "> 10000", "unit": "nM"}, {"measurement": "suppression of seizure-like swim behavior (change in mean velocity)", "setting": "scn1lab mutant zebrafish", "result": "no significant effect on the high-speed seizure-like behavior; also recorded: no significant effect on the swim behavior"}, {"measurement": "suppression of seizure-like swim behavior (change in mean swim velocity)", "setting": "scn1lab mutant zebrafish", "result": "no significant effect on swim behavior"}]}
{"compound": "Nc1ccc(Cn2c(CN3CCCC3)nc3ccccc32)cc1", "note": "[Compound 14]", "values": [{"measurement": "Ki", "setting": "human 5-HT2AR [1]", "result": "> 10000", "unit": "nM"}, {"measurement": "specificity / selectivity for 5-HT2BR over other 5-HT2R subtypes", "setting": "human 5-HT2BR [2]", "result": "specific binding for 5HT2BR; also recorded: selectivity for 5-HT2BR"}, {"measurement": "Ki", "setting": "human 5-HT2BR [2]", "result": 606, "unit": "nM"}, {"measurement": "Ki", "setting": "human H1 receptor", "result": 27, "unit": "nM"}, {"measurement": "Ki", "setting": "human 5-HT2CR [3]", "result": "> 10000", "unit": "nM"}, {"measurement": "suppression of seizure-like swim behavior (change in mean velocity)", "setting": "scn1lab mutant zebrafish", "result": "no significant effect on the high-speed seizure-like behavior; also recorded: no significant effect on the swim behavior"}, {"measurement": "suppression of seizure-like swim behavior (change in mean swim velocity)", "setting": "scn1lab mutant zebrafish", "result": "no significant effect on swim behavior"}]}
{"compound": "CN1CCc2cccc3c2[C@H]1Cc1ccc(O)c(O)c1-3", "note": "[apomorphine, reference compound]", "values": [{"measurement": "effect on seizure-like swim behavior (change in mean velocity)", "setting": "scn1lab mutant zebrafish", "result": "significantly increased mean swim velocity"}]}
{"compound": "Clc1ccc(Cn2c(CN3CCCCC3)nc3ccccc32)cc1", "note": "[Compound 22]", "values": [{"measurement": "Ki", "setting": "human 5-HT2AR [1]", "result": 623, "unit": "nM"}, {"measurement": "Ki", "setting": "human 5-HT2BR [2]", "result": 306, "unit": "nM"}, {"measurement": "Ki", "setting": "human H1 receptor", "result": 8.5, "unit": "nM"}, {"measurement": "Ki", "setting": "human 5-HT2CR [3]", "result": 4580, "unit": "nM"}]}
{"compound": "c1ccc(Cn2c(CN3CCCC3)nc3ccccc32)cc1", "note": "[Compound 3]", "values": [{"measurement": "Ki", "setting": "human 5-HT2AR [1]", "result": 327, "unit": "nM"}, {"measurement": "Ki", "setting": "human 5-HT2BR [2]", "result": 83, "unit": "nM"}, {"measurement": "Ki", "setting": "human H1 receptor", "result": 4.8, "unit": "nM"}, {"measurement": "Ki", "setting": "human 5-HT2CR [3]", "result": 292, "unit": "nM"}]}
{"compound": "C[C@H](N)Cn1ccc2cc(F)c(Cl)cc21", "note": "[Ro 60-0175]", "values": [{"measurement": "Ki", "setting": "human 5-HT2BR [4]", "result": 4.3, "unit": "nM"}, {"measurement": "Ki", "setting": "human 5-HT2AR [5]", "result": 37.2, "unit": "nM"}, {"measurement": "Ki", "setting": "human 5-HT2CR [6]", "result": 9.1, "unit": "nM"}, {"measurement": "effect on seizure-like swim behavior (change in mean velocity)", "setting": "scn1lab mutant zebrafish", "result": "consistently decreased mean velocity and was borderline effective after 90 mins of drug exposure"}]}
{"compound": "Fc1ccc(Cn2c(CN3CCCC3)nc3ccccc32)cc1", "note": "[Compound 7]", "values": [{"measurement": "Ki", "setting": "human 5-HT2AR [1]", "result": 15, "unit": "nM"}, {"measurement": "Ki", "setting": "human 5-HT2BR [2]", "result": 46, "unit": "nM"}, {"measurement": "Ki", "setting": "human H1 receptor", "result": 1, "unit": "nM"}, {"measurement": "Ki", "setting": "human 5-HT2CR [3]", "result": 345, "unit": "nM"}]}
{"compound": "Clc1ccc(Cn2c(CN3CCCC3)cc3ccccc32)cc1", "note": "[Compound 11, 1-[(4-Chlorophenyl)methyl]-2-[(pyrrolidin-1-yl)methyl]-1H-indole]", "values": [{"measurement": "Ki", "setting": "human 5-HT2AR [1]; [7]", "result": 631, "unit": "nM"}, {"measurement": "Ki", "setting": "human 5-HT2BR [2]; [7]", "result": 134, "unit": "nM"}, {"measurement": "Ki", "setting": "human H1 receptor; [7]", "result": 6.4, "unit": "nM"}, {"measurement": "Ki", "setting": "human 5-HT2CR [3]; [7]", "result": 248, "unit": "nM"}]}
{"compound": "CCN(CC)Cc1nc2ccccc2n1Cc1ccc(Cl)cc1", "note": "[Compound 24, ({1-[(4-Chlorophenyl)methyl]-1H-1,3-benzodiazol-2-yl}methyl)diethylamine]", "values": [{"measurement": "Ki", "setting": "human 5-HT2AR [1]; [7]", "result": 1260, "unit": "nM"}, {"measurement": "Ki", "setting": "human 5-HT2BR [2]; [7]", "result": 115, "unit": "nM"}, {"measurement": "Ki", "setting": "human H1 receptor; [7]", "result": 3.7, "unit": "nM"}, {"measurement": "Ki", "setting": "human 5-HT2CR [3]; [7]", "result": 1410, "unit": "nM"}]}
